In patent publication US6468981B1, “Compositions and methods for targeting pharmaceutically active materials to cells containing androgen receptors” (Emory University, priority 1994, dated 2002):

What was measured:
[1] = molecular target: androgen receptor of LNCaP prostate tumor cells (Homo sapiens, UniProt P10275, T878A); conditions: cited from earlier work
LNCaP cells = assay: Expression of pCMV-beta (lacZ) DNA in LNCaP cells, X-gal blue staining, number of blue cells per culture plate; format: cell-based, human; conditions: DHT-poly-L-lysine alone, no DNA; 48 hours incubation
Method: DHT poly-L-lysine as described in Example 1 was dialyzed against tris-EDTA buffer pH=7 (“HMW-D”) or purified by gel filtration column chromatography (“HMW-2=fraction #2 of the column, HMW-9=fraction 9 of the column). Protein concentrations of reaction products and column fractions were determined by the coomassie blue method. DHT-poly-L-lysine at amounts from 0.05 micrograms to 12.5 micrograms were mixed with pCMV-beta DNA expression construct containing the lacZ gene driven by the CMV immediate early promoter/enhancer in a pVC19 backbone, in amounts from 3 to 50 micrograms in 100 microliters of water at room temperature for one hour with vortex mixing every 15 minutes.
The reaction products of Example 2 were added to 1-3 ml of tissue culture media supplemented with 10% fetal bovine serum and filtered through 0.2 micron filter and added to subconfluent cultures of LNCaP cells growing on glass slides. Cells were incubated at 37 degrees C. 5% CO2 for 48 hours. Next, adherent cells were washed with phosphate buffered saline (PBS) and fixed with 2% paraformaldelyde in 0.1 M NaPO4 buffer pH=7.4 for 45 min. to one hour. Fixative was aspirated and cells rinsed with PBS and X-gal stain was applied. […] Each culture plate was scored for the number of cells which turned blue.

Sequence of androgen receptor of LNCaP prostate tumor cells (P10275 whole entry T878A): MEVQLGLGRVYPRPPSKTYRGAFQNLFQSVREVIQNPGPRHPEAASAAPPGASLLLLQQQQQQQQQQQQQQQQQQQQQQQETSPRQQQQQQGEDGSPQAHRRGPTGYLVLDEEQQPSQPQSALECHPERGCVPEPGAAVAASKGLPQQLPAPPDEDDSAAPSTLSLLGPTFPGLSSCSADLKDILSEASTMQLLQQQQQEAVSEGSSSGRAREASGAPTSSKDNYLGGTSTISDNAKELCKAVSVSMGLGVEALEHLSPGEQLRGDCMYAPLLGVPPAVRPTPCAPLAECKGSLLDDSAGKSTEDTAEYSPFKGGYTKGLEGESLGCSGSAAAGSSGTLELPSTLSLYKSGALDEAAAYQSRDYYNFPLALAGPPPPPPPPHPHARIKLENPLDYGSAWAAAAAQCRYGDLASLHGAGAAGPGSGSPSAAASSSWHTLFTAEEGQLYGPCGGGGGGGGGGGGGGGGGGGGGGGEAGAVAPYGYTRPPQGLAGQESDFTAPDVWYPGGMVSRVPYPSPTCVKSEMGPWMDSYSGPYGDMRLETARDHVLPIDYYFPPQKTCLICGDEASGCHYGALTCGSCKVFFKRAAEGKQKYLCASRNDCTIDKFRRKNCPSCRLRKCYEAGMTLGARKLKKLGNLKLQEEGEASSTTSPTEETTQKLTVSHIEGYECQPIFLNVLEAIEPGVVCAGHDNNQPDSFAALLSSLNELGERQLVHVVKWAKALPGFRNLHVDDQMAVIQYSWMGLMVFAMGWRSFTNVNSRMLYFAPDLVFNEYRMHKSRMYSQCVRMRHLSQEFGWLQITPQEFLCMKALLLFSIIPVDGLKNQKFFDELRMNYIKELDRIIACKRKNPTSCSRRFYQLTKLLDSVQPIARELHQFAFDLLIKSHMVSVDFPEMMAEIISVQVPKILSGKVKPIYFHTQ

Compound | Relative binding affinities for the androgen receptor [1] | positive (blue-stained) cells (LNCaP cells)
C[C@]1(O)CC[C@H]2[C@@H]3CCC4=CC(=O)CCC4=C3C=C[C@@]21C [R1881, 17β-hydroxy-17α-methyl-estra-4,9,11-trien-3-one] | 100 | 
DHT-poly-L-lysine HBr |  | no positive cells
